From US10793568B2, “Hormone receptor modulators for treating metabolic conditions and disorders” (ARDELYX, INC., priority 2016, dated 2020) come the findings set out here.

Assay [1] has as its target ligand binding domain of human FXR (Homo sapiens (Human), UniProt Q96RI1). Nature of the assay: FXR ligand binding assay (LanthaScreen TR-FRET, SRC2-2 peptide recruitment). To be noted: for pEC50: -log EC50, concentration required to produce 50% activation; for Emax: read-out: % Efficacy. A general note: In TR-FRET formats the signal depends on donor and acceptor labels being close together.

Assay [2] has as its target human Farnesoid X receptor ligand-binding domain/Gal4 DNA binding domain chimera (Homo sapiens (Human), UniProt Q96RI1). Nature of the assay: Cell-based assay of FXR activation (FXR-UAS-bla HEK 293T beta-lactamase reporter). To be noted: cellular FXR beta-lactamase reporter assay; for Emax: HEK-293T, extent of activation relative to GW4064, read-out: % Efficacy; for EC50: FXR-UAS-bla HEK 293T cells, 16 h, pEC50 = -log EC50. An outline of the steps:
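Readout is cleavage of the CCF4 FRET substrate (409 nm excitation, blue 447 nm signal) by beta-lactamase, expressed under UAS control after a Gal4–human FXR LBD chimera is activated in HEK 293T cells. Compounds were added as 3-fold dilutions for 16 h at 37 °C in 2% charcoal-stripped FBS medium. Curves were fit to a 3-parameter logistic equation to give pEC50, with % activation relative to GW4064.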
On the technique in general: Reporter assays use an easily measured gene product as a stand-in for the process of interest.

[3] abbreviates: extent of activation relative to GW4064.

Read-outs that look alike come from different tables or passages of the source. Where only a bound is given, the exact number is not on record here.

human Farnesoid X receptor ligand-binding domain/Gal4 DNA binding domain chimera, sequence (Q96RI1 262-486, change not shown): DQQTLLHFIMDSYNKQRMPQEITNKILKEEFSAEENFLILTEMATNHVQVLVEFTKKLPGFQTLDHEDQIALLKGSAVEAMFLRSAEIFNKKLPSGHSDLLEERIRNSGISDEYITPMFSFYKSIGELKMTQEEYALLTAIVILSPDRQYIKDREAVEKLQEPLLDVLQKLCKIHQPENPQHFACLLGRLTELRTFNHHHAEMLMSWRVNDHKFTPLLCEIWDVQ
human Farnesoid X receptor ligand-binding domain/Gal4 DNA binding domain chimera, sequence (P04386 1-147 partner): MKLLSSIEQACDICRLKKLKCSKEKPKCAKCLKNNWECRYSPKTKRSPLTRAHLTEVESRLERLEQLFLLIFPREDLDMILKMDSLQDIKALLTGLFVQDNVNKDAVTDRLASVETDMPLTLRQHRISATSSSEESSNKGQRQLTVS
ligand binding domain of human FXR, sequence (Q96RI1 262-486): as the sequence (Q96RI1 262-486, change not shown) above

Usually pEC50 stands for the negative decadic logarithm of the EC50, by convention in mol/L. What is called EC50 is the concentration needed to bring the measured effect to its halfway point. Read a low EC50 as a more potent agent. In the case of `O=C1OCc2cc(N3C[C@@H]4C[C@H]3C[C@H]4OCc3c(-c4c(Cl)cccc4Cl)noc3C3CC3)ccc21` [Compound I-141, 5-[(1S,4S,5R)-5-{[5-cyclopropyl-3-(2,6-dichlorophenyl)-1,2-oxazol-4-yl]methoxy}-2-azabicyclo[2.2.1]heptan-2-yl]-1,3-dihydro-2-benzofuran-1-one], in assay [1], the pEC50 came to 7. In assay [1] (setting [3]), the Emax was 137%. Further, in assay [2], the Emax is 106% and the concentration giving a half-maximal response (EC50) was 63.1 nM.

In turn, `O=C(c1ccc(N2C[C@@H]3C[C@H]2C[C@H]3OCc2c(-c3c(Cl)cccc3Cl)noc2C2CC2)cc1)C(F)(F)F` [Compound I-142, 1-{4-[(1S,4S,5R)-5-{[5-cyclopropyl-3-(2,6-dichlorophenyl)-1,2-oxazol-4-yl]methoxy}-2-azabicyclo[2.2.1]heptan-2-yl]phenyl}-2,2,2-trifluoroethan-1-one] came in with a pEC50 in assay [1] of 7.8. Further, the Emax turned out to be 78% in assay [1] (setting [3]) and 104% in assay [2]. It took 20 nM to reach a half-maximal effect in assay [2] (EC50).

For `CN(CC(=O)O)S(=O)(=O)c1ccc(N2C[C@@H]3C[C@H]2C[C@H]3OCc2c(-c3c(Cl)cccc3Cl)noc2C2CC2)cc1` [Compound I-143, 2-{N-methyl4-[(1S,4S,5R)-5-{[5-cyclopropyl-3-(2,6-dichlorophenyl)-1,2-oxazol-4-yl]methoxy}-2-azabicyclo[2.2.1]heptan-2-yl]benzenesulfonamido}acetic Acid], the pEC50 in assay [1] turned out to be 8. In assay [1] (setting [3]), the Emax is 132%. Moreover, in assay [2], the Emax stood at 105% and the EC50 is 1 nM.

In assay [1], `O=S(=O)(O)c1ccc(N2C[C@@H]3C[C@H]2C[C@H]3OCc2c(-c3c(Cl)cccc3Cl)noc2C2CC2)cc1` [Compound I-144, 4-[(1S,4S,5R)-5-{[5-cyclopropyl-3-(2,6-dichlorophenyl)-1,2-oxazol-4-yl]methoxy}-2-azabicyclo[2.2.1]heptan-2-yl]benzene-1-sulfonic Acid] yielded a pEC50 of 8.2. In addition, the Emax in assay [1] (setting [3]) was 128%. This compound showed an EC50 in assay [2] of less than 31.6 nM.

As to `O=C(O)c1cnc(N2C[C@@H]3C[C@H]2C[C@H]3OCc2c(-c3c(Cl)cccc3Cl)noc2C2CC2)nc1` [Compound I-145, 2-[(1S,4S,5R)-5-{[5-cyclopropyl-3-(2,6-dichlorophenyl)-1,2-oxazol-4-yl]methoxy}-2-azabicyclo[2.2.1]heptan-2-yl]pyrimidine-5-carboxylic Acid], in assay [1], the pEC50 came out at 8. Further, in assay [1] (setting [3]), the Emax worked out at 118%. In assay [2], the Emax was found to be 108% and the EC50 is 63.1 nM.

Compound `O=C(O)Cc1ccc(N2C[C@@H]3C[C@H]2C[C@H]3OCc2c(-c3c(Cl)cccc3Cl)noc2C2CC2)cc1` [Compound I-146, 2-{4-[(1S,4S,5R)-5-{[5-cyclopropyl-3-(2,6-dichlorophenyl)-1,2-oxazol-4-yl]methoxy}-2-azabicyclo[2.2.1]heptan-2-yl]phenyl}acetic Acid] yielded a pEC50 in assay [1] of 7.9. Besides, the Emax in assay [1] (setting [3]) is 134%. Further, in assay [2], the Emax was 101% and the midpoint of the response, the EC50, lay at 7.94 nM.

As to `O=C(O)CCc1ccc(N2C[C@@H]3C[C@H]2C[C@H]3OCc2c(-c3c(Cl)cccc3Cl)noc2C2CC2)cc1` [Compound I-147, 3-{4-[(1S,4S,5R)-5-{[5-cyclopropyl-3-(2,6-dichlorophenyl)-1,2-oxazol-4-yl]methoxy}-2-azabicyclo[2.2.1]heptan-2-yl]phenyl}propanoic Acid], in assay [1], the negative logarithm of the EC50 (pEC50) is recorded as 8.1 and the Emax was determined as 142%. In addition, in assay [2], the Emax worked out at 112% and the EC50 was 0.631 nM.

Regarding `O=C(O)CCCc1ccc(N2C[C@@H]3C[C@H]2C[C@H]3OCc2c(-c3c(Cl)cccc3Cl)noc2C2CC2)cc1` [Compound I-148, 4-{4-[(1S,4S,5R)-5-{[5-cyclopropyl-3-(2,6-dichlorophenyl)-1,2-oxazol-4-yl]methoxy}-2-azabicyclo[2.2.1]heptan-2-yl]phenyl}butanoic Acid], in assay [1], the pEC50 was 7.8. In addition, the Emax in assay [1] (setting [3]) was found to be 136%. Moreover, in assay [2], the Emax is 117% and the response was half-maximal at 20 nM (EC50).

In assay [1], `O=C(O)C1(c2ccc(N3C[C@@H]4C[C@H]3C[C@H]4OCc3c(-c4c(Cl)cccc4Cl)noc3C3CC3)cc2)CC1` [Compound I-149, 1-{4-[(1S,4S,5R)-5-{[5-cyclopropyl-3-(2,6-dichlorophenyl)-1,2-oxazol-4-yl]methoxy}-2-azabicyclo[2.2.1]heptan-2-yl]phenyl}cyclopropane-1-carboxylic Acid] had a negative logarithm of the EC50 (pEC50) of 8.2. In addition, the Emax in assay [1] (setting [3]) worked out at 106%; in assay [2] it was 101%. Also, in assay [2], the EC50 was 63.1 nM.

`O=C(O)C1(c2ccc(N3C[C@@H]4C[C@H]3C[C@H]4OCc3c(-c4c(Cl)cccc4Cl)noc3C3CC3)cc2)CCC1` [Compound I-150, 1-{4-[(1S,4S,5R)-5-{[5-cyclopropyl-3-(2,6-dichlorophenyl)-1,2-oxazol-4-yl]methoxy}-2-azabicyclo[2.2.1]heptan-2-yl]phenyl}cyclobutane-1-carboxylic Acid] displayed a pEC50 in assay [1] of 8.9. In addition, the Emax in assay [1] (setting [3]) was found to be 102%. For the same compound, in assay [2], the Emax was determined as 96% and it took 25.1 nM to reach a half-maximal effect (EC50).

Regarding `O=C(O)C1CC(c2ccc(N3C[C@@H]4C[C@H]3C[C@H]4OCc3c(-c4c(Cl)cccc4Cl)noc3C3CC3)cc2)C1` (stereo partly drawn) [Compound I-151, 3-{4-[(1S,4S,5R)-5-{[5-cyclopropyl-3-(2,6-dichlorophenyl)-1,2-oxazol-4-yl]methoxy}-2-azabicyclo[2.2.1]heptan-2-yl]phenyl}cyclobutane-1-carboxylic Acid], the pEC50 in assay [1] turned out to be 8.6. The Emax in assay [1] (setting [3]) came out at 134%; in assay [2] it was 106%. The compound also showed an EC50 in assay [2] of 25.1 nM.

As to `CC(CC(=O)O)c1ccc(N2C[C@@H]3C[C@H]2C[C@H]3OCc2c(-c3c(Cl)cccc3Cl)noc2C2CC2)c(F)c1` (stereo partly drawn) [Compound I-152, 3-{4-[(1S,4S,5R)-5-{[5-cyclopropyl-3-(2,6-dichlorophenyl)-1,2-oxazol-4-yl]methoxy}-2-azabicyclo[2.2.1]heptan-2-yl]-3-fluorophenyl}butanoic Acid], the Emax in assay [1] (setting [3]) amounted to 132%. Besides, in assay [2], the Emax was found to be 105% and the EC50 is 5.01 nM.

On to `O=C(O)Cc1ccc(N2C[C@@H]3C[C@H]2C[C@H]3OCc2c(-c3c(Cl)cccc3Cl)noc2C2CC2)c(F)c1` [Compound I-153, 2-{4-[(1S,4S,5R)-5-{[5-cyclopropyl-3-(2,6-dichlorophenyl)-1,2-oxazol-4-yl]methoxy}-2-azabicyclo[2.2.1]heptan-2-yl]-3-fluorophenyl}acetic Acid], for which, in assay [1], the pEC50 came to 9.2. The Emax in assay [1] (setting [3]) is 130%. Further, in assay [2], the Emax is 100% and the EC50 is 10 nM.

For `O=C(O)CCc1ccc(N2C[C@@H]3C[C@H]2C[C@H]3OCc2c(-c3c(Cl)cccc3Cl)noc2C2CC2)c(F)c1` [Compound I-154, 3-{4-[(1S,4S,5R)-5-{[5-cyclopropyl-3-(2,6-dichlorophenyl)-1,2-oxazol-4-yl]methoxy}-2-azabicyclo[2.2.1]heptan-2-yl]-3-fluorophenyl}propanoic Acid], in assay [1], the pEC50 worked out at 8.6. In addition, the Emax in assay [1] (setting [3]) turned out to be 158%. In assay [2], the Emax was 105% and a half-maximal response (EC50) required 0.501 nM.

Take `O=C(O)CCc1ccc(N2C[C@@H]3C[C@H]2C[C@H]3OCc2c(-c3c(Cl)cccc3Cl)noc2C2CC2)cc1F` [Compound I-155, 3-{4-[(1S,4S,5R)-5-{[5-cyclopropyl-3-(2,6-dichlorophenyl)-1,2-oxazol-4-yl]methoxy}-2-azabicyclo[2.2.1]heptan-2-yl]-2-fluorophenyl}propanoic Acid]: the negative-log EC50 (pEC50) in assay [1] is recorded as 8.3. Besides, the Emax in assay [1] (setting [3]) was 136%. In addition, in assay [2], the Emax stood at 102% and a half-maximal response (EC50) required 1 nM.

`CC(C)(Cc1ccc(N2C[C@@H]3C[C@H]2C[C@H]3OCc2c(-c3c(Cl)cccc3Cl)noc2C2CC2)cc1F)C(=O)O` [Compound I-156, 3-{4-[(1S,4S,5R)-5-{[5-cyclopropyl-3-(2,6-dichlorophenyl)-1,2-oxazol-4-yl]methoxy}-2-azabicyclo[2.2.1]heptan-2-yl]-2-fluorophenyl}-2,2-dimethylpropanoic Acid]: the pEC50 in assay [1] worked out at 7.6. In addition, the figures for the Emax in assay [1] (setting [3]) and in assay [2] were 128% and 105%, respectively. In addition, the midpoint of the response in assay [2], the EC50, lay at 39.8 nM.

Regarding `O=C(O)CCCc1ccc(N2C[C@@H]3C[C@H]2C[C@H]3OCc2c(-c3c(Cl)cccc3Cl)noc2C2CC2)c(F)c1` [Compound I-157, 4-{4-[(1S,4S,5R)-5-{[5-cyclopropyl-3-(2,6-dichlorophenyl)-1,2-oxazol-4-yl]methoxy}-2-azabicyclo[2.2.1]heptan-2-yl]-3-fluorophenyl}butanoic Acid], in assay [1], the pEC50 is recorded as 8.2. The Emax in assay [1] (setting [3]) amounted to 134%; in assay [2], 100%. For the same compound, the 50% effective concentration (EC50) in assay [2] is 2.51 nM.

Compound `N#Cc1cc(CCC(=O)O)ccc1N1C[C@@H]2C[C@H]1C[C@H]2OCc1c(-c2c(Cl)cccc2Cl)noc1C1CC1` [Compound I-158, 3-{3-cyano-4-[(1S,4S,5R)-5-{[5-cyclopropyl-3-(2,6-dichlorophenyl)-1,2-oxazol-4-yl]methoxy}-2-azabicyclo[2.2.1]heptan-2-yl]phenyl}propanoic Acid] gave a pEC50 in assay [1] of 7.6. Further, the Emax is 126% in assay [1] (setting [3]) and 104% in assay [2]. The compound also showed a half-maximal effective concentration (EC50) in assay [2] of 6.31 nM.
